Experimental data taken from patent US7678803B2, “Quinazoline derivatives for the treatment of cancer” (Serenex, Inc., priority 2006, dated 2010).
pIC50: −log10 of the molar value.

Legend:
[1] = test system: HSP-90 (heat shock protein 90); experiment: Determination of affinity for HSP-90 (elution from purine affinity column); conditions: relative binding affinity to HSP-90; note: key: +++: very high; ++: high; +: moderate
Protocol: Affinity of test compounds for HSP-90 is determined as follows: Protein mixtures obtained from a variety of organ tissues (for example: spleen, liver and lung) are reversibly bound to a purine affinity column to capture purine-binding proteins, especially HSP-90. […] The elution profile of Formula I compounds is determined by 1-dimensional SDS polyacrylamide gel electrophoresis. Gels are stained with a fluorescent stain such as sypro ruby (a highly sensitive fluorescent protein stain that can readily detect less than 1 fmol of total protein, i.e., less than 0.04 ng for a 40 kDa protein) or silver nitrate. The gels are imaged using a standard flat bed gel imager and the amount of protein estimated by densitometry. The percent of HSP-90 protein eluted from the column at each concentration is determined and IC50 values are calculated from these estimates.

PC-3 = PC-3 cell proliferation assay (WST-1); type: cell-based; conditions: Homo sapiens; inhibitory activity against PC-3 cell proliferation
Protocol: A panel of cancer cell lines is obtained from the DCTP Tumor Repository, National Cancer Institute (Frederick, Md.) or ATCC (Rockville, Md.). Cell cultures are maintained in Hyclone RPMI 1640 medium (Logan, Utah) supplemented with 10% fetal bovine serum and 20 mM HEPES buffer, final pH 7.2, at 37° C. with a 5% CO2 atmosphere. Cultures are maintained at sub-confluent densities. Human umbilical vein endothelial cells (HUVEC) are purchased from Clonetics, a division of Cambrex (Walkersville, Md.). Cultures are established from cryopreserved stocks using Clonetics EGM-2 medium supplemented with 20 mM HEPES, final pH 7.2, at 37° C. with a 5% CO2 atmosphere.
For proliferation assays, cells are seeded with the appropriate medium into 96 well plates at 1,000-2,500 cells per well, depending on the cell line, and are incubated overnight. The following day, test compound, DMSO solution (negative control), or Actinomycin D (positive control) is added to the appropriate wells as 10× concentrated stocks prepared in phosphate buffered saline. The cell plates are then incubated for an additional 2-5 days, depending on the cell line, to allow proliferation to occur. To measure cell density, 50 μL of WST-1 solution (Roche Applied Science, IN) diluted 1:5 in phosphate buffered saline is added to each well, and the cells incubated for an additional 1-5 hrs., again depending on the cell line. Optical density is determined for each well at […] using a Tecan GeniosPro plate reader (RTP, NC). The percentage of cell growth is determined by comparing the cell growth in the presence of test compounds to the cells treated with DMSO vehicle (control, 100% growth) and cells treated with Actinomycin D (10 μM, 0% growth). […]

Structure (SMILES) | pIC50 (PC-3) | Affinity [1]
COc1cc(-n2cc(C)c3c2CC(C)(C)CC3=O)cc2ncnc(N)c12 [Compound 76, 1-(4-amino-5-methoxyquinazolin-7-yl)-3,6,6-trimethyl-6,7-dihydro-1H-indol-4(5H)-one] | – | ++
Cc1cn(-c2ccc3c(N)ncc(C(=O)O)c3c2)c2c1C(=O)CC(C)(C)C2 [Compound 106, 1-amino-6-(3,6,6-trimethyl-4-oxo-4,5,6,7-tetrahydro-1H-indol-1-yl)isoquinoline-4-carboxylic acid] | – | ++
COCCNc1c(-n2cc(C)c3c2CC(C)(C)CC3=O)ccc2c(N)ncnc12 [Compound 56, 1-(4-amino-8-(2-methoxyethylamino)quinazolin-7-yl)-3,6,6-trimethyl-6,7-dihydro-1H-indol-4(5H)-one] | – | +++
CCCCSc1c(-n2cc(C)c3c2CC(C)(C)CC3=O)ccc2c(N)ncnc12 [Compound 54, 1-(4-amino-8-(butylthio)quinazolin-7-yl)-3,6,6-trimethyl-6,7-dihydro-1H-indol-4(5H)-one] | 5.30 to 6.30 | –
C/C(=N\O)c1cnc(N)c2ccc(-n3cc(C)c4c3CC(C)(C)CC4=O)cc12 [Compound 102, (E)-1-(1-amino-4-(1-(hydroxyimino)ethyl)isoquinolin-6-yl)-3,6,6-trimethyl-6,7-dihydro-1H-indol-4(5H)-one] | 4.30 to 5.30 | –
Cc1cn(-c2ccc3c(N)ncnc3c2SCCNC(C)(C)C)c2c1C(=O)CC(C)(C)C2 [Compound 110, 1-(4-amino-8-(2-(tert-butylamino)ethylthio)quinazolin-7-yl)-3,6,6-trimethyl-6,7-dihydro-1H-indol-4(5H)-one] | 5.30 to 6.30 | –
Cc1c2c(n(-c3ccc4c(N)ncnc4c3)c1C)CC(C)(C)CC2=O [Compound 92, 1-(4-aminoquinazolin-7-yl)-2,3,6,6-tetramethyl-6,7-dihydro-1H-indol-4(5H)-one] | > 6.30 | –
CCCCOc1c(-n2cc(C)c3c2CC(C)(C)CC3=O)ccc2c(N)ncnc12 [Compound 53, 1-(4-amino-8-butoxyquinazolin-7-yl)-3,6,6-trimethyl-6,7-dihydro-1H-indol-4(5H)-one] | – | +++
Cc1cn(-c2ccc3c(N)ncc(/C(N)=N/O)c3c2)c2c1C(=O)CC(C)(C)C2 [Compound 105, (Z)-1-amino-N′-hydroxy-6-(3,6,6-trimethyl-4-oxo-4,5,6,7-tetrahydro-1H-indol-1-yl)isoquinoline-4-carboximidamide] | – | +++
Cc1cn(-c2ccc3c(N)nc(N)nc3c2)c2c1C(=O)CC(C)(C)C2 [Compound 41, 1-(2,4-diaminoquinazolin-7-yl)-3,6,6-trimethyl-6,7-dihydro-1H-indol-4(5H)-one] | – | +++
Cc1cn(-c2cc(F)c3c(N)ncnc3c2)c2c1C(=O)CC(C)(C)C2 [Compound 63, 1-(4-amino-5-fluoroquinazolin-7-yl)-3,6,6-trimethyl-6,7-dihydro-1H-indol-4(5H)-one] | – | +
Cc1cn(-c2cnc3c(N)ncnc3c2)c2c1C(=O)CC(C)(C)C2 [Compound 66, 1-(4-aminopyrido[3,2-d]pyrimidin-7-yl)-3,6,6-trimethyl-6,7-dihydro-1H-indol-4(5H)-one] | 5.30 to 6.30 | –
Cc1cn(-c2ccc3c(O)ncnc3c2)c2c1C(=O)CC(C)(C)C2 [Compound 90, 1-(4-hydroxyquinazolin-7-yl)-3,6,6-trimethyl-6,7-dihydro-1H-indol-4(5H)-one] | > 6.30 | –
CCCCSc1cc(-n2cc(C)c3c2CC(C)(C)CC3=O)cc2ncnc(N)c12 [Compound 73, 1-(4-amino-5-(butylthio)quinazolin-7-yl)-3,6,6-trimethyl-6,7-dihydro-1H-indol-4(5H)-one] | 4.30 to 5.30 | –
Cc1cn(-c2cc(F)c3c(N)nc(N)nc3c2)c2c1C(=O)CC(C)(C)C2 [Compound 126, 1-(2,4-diamino-5-fluoroquinazolin-7-yl)-3,6,6-trimethyl-6,7-dihydro-1H-indol-4(5H)-one] | 5.30 to 6.30 | –
COc1cc(COc2cc(-n3cc(C)c4c3CC(C)(C)CC4=O)cc3ncnc(N)c23)cc(OC)c1 [Compound 78, 1-(4-amino-5-(3,5-dimethoxybenzyloxy)quinazolin-7-yl)-3,6,6-trimethyl-6,7-dihydro-1H-indol-4(5H)-one] | 5.30 to 6.30 | –

Second part, led by results:

pIC50 (PC-3) | Structure (SMILES) | Affinity [1]
> 6.30 | Cc1cn(-c2ccc3c(C)nc(N)nc3c2)c2c1C(=O)CC(C)(C)C2 [Compound 128, 1-(2-amino-4-methylquinazolin-7-yl)-3,6,6-trimethyl-6,7-dihydro-1H-indol-4(5H)-one] | –
5.30 to 6.30 | CC1(C)CC(=O)c2c(C(F)F)nn(-c3ccc4c(N)ncc(C#N)c4c3)c2C1 [Compound 94, 1-amino-6-(3-(difluoromethyl)-6,6-dimethyl-4-oxo-4,5,6,7-tetrahydro-1H-indazol-1-yl)isoquinoline-4-carbonitrile] | –
5.30 to 6.30 | Cc1cn(-c2ccc3c(N)ncnc3c2)c2c1C(=O)CC(C)(C)C2 [Compound 39, 1-(4-aminoquinazolin-7-yl)-3,6,6-trimethyl-6,7-dihydro-1H-indol-4(5H)-one] | –
4.30 to 5.30 | CC1(C)CC(=O)c2c(CC3CC3)nn(-c3ccc4c(N)ncnc4c3)c2C1 [Compound 83, 1-(4-aminoquinazolin-7-yl)-3-(cyclopropylmethyl)-6,6-dimethyl-6,7-dihydro-1H-indazol-4(5H)-one] | –
4.30 to 5.30 | Cc1cn(-c2ccc3c(N)ncnc3c2OCCN(C)C)c2c1C(=O)CC(C)(C)C2 [Compound 52, 1-(4-amino-8-(2-(dimethylamino)ethoxy)quinazolin-7-yl)-3,6,6-trimethyl-6,7-dihydro-1H-indol-4(5H)-one] | –
4.30 to 5.30 | Cc1nn(-c2ccc3c(N)ncc(Br)c3c2)c2c1C(=O)CC(C)(C)C2 [Compound 47, 1-(1-amino-4-bromoisoquinolin-6-yl)-3,6,6-trimethyl-6,7-dihydro-1H-indazol-4(5H)-one] | –
5.30 to 6.30 | Cc1cn(-c2ccc3c(N)ncnc3c2F)c2c1C(=O)CC(C)(C)C2 [Compound 43, 1-(4-amino-8-fluoroquinazolin-7-yl)-3,6,6-trimethyl-6,7-dihydro-1H-indol-4(5H)-one] | –
5.30 to 6.30 | CC(=O)c1cnc(N)c2ccc(-n3cc(C)c4c3CC(C)(C)CC4=O)cc12 [Compound 107, 1-(4-acetyl-1-aminoisoquinolin-6-yl)-3,6,6-trimethyl-6,7-dihydro-1H-indol-4(5H)-one] | –
4.30 to 5.30 | Cc1cn(-c2ccc3c(N)ncc(C(N)=O)c3c2)c2c1C(=O)CC(C)(C)C2 [Compound 104, 1-amino-6-(3,6,6-trimethyl-4-oxo-4,5,6,7-tetrahydro-1H-indol-1-yl)isoquinoline-4-carboxamide] | –
4.30 to 5.30 | Cc1cc2c(n1-c1cnc3c(N)ncnc3c1)CC(C)(C)CC2=O [Compound 38, 1-(4-aminopyrido[3,2-d]pyrimidin-7-yl)-2,6,6-trimethyl-6,7-dihydro-1H-indol-4(5H)-one] | –
4.30 to 5.30 | Cc1cn(-c2ccc3c(N)ncc(N)c3c2)c2c1C(=O)CC(C)(C)C2 [Compound 121, 1-(1,4-diaminoisoquinolin-6-yl)-3,6,6-trimethyl-6,7-dihydro-1H-indol-4(5H)-one] | –
4.30 to 5.30 | CC1(C)CC(=O)c2c(C(F)(F)F)nn(-c3ccc4c(N)ncnc4c3)c2C1 [Compound 51, 1-(4-aminoquinazolin-7-yl)-6,6-dimethyl-3-(trifluoromethyl)-6,7-dihydro-1H-indazol-4(5H)-one] | –
5.30 to 6.30 | Cc1cn(-c2ccc3c(N)ncnc3c2F)c2c1C(=O)CC(C)C2 (stereo not drawn) [Compound 65, 1-(4-amino-8-fluoroquinazolin-7-yl)-3,6-dimethyl-6,7-dihydro-1H-indol-4(5H)-one] | –
5.30 to 6.30 | CCOc1c(-n2cc(C)c3c2CC(C)(C)CC3=O)ccc2c(N)ncnc12 [Compound 62, 1-(4-amino-8-ethoxyquinazolin-7-yl)-3,6,6-trimethyl-6,7-dihydro-1H-indol-4(5H)-one] | –
5.30 to 6.30 | Cc1cn(-c2ccc3c(N)ncnc3c2OC2CCOCC2)c2c1C(=O)CC(C)(C)C2 [Compound 133, 1-(4-amino-8-(tetrahydro-2H-pyran-4-yloxy)quinazolin-7-yl)-3,6,6-trimethyl-6,7-dihydro-1H-indol-4(5H)-one] | –
> 6.30 | Cc1cn(-c2ccc3c(N)ncnc3c2SCCNCC(C)(C)C)c2c1C(=O)CC(C)(C)C2 [Compound 81, 1-(4-amino-8-(2-(neopentylamino)ethylthio)quinazolin-7-yl)-3,6,6-trimethyl-6,7-dihydro-1H-indol-4(5H)-one] | –
> 6.30 | Cc1cn(-c2cnc3c(N)nc(N)nc3c2)c2c1C(=O)CC(C)(C)C2 [Compound 139, 1-(2,4-diaminopyrido[3,2-d]pyrimidin-7-yl)-3,6,6-trimethyl-6,7-dihydro-1H-indol-4(5H)-one] | –
